# Earlier results in publication PMC3249774 (Research in Pharmaceutical Sciences, 2011).
# Test system: neuroblastoma cells
# Settings: cells treated with DFO
smiles,measurement,value
CC(=O)N(O)CCCCCNC(=O)CCC(=O)N(O)CCCCCNC(=O)CCC(=O)N(O)CCCCCN [DFO],Sensitivity of neuroblastoma cells relative to normal bone marrow cells,10 fold
